Several values for one entry are separate records, joined by “and”; a condition that tells them apart may be missing. Equal values may be shown once. Entries after “also recorded” stand apart in the source; their conditions may differ.
Legend:
[1] = tested on: ex-vivo healthy swine arterial tissue; assay: Fluorescence microscopy of ex-vivo arterial tissue cross-sections after delivery of 10-8-10 Dimer; type: in vitro ADME; settings: 2 mg/mL for five minutes, 60x fluorescence microscopy
Protocol: FIGS. 32A and B are fluorescence microscopy images of ex-vivo healthy swine arterial tissue cross-section delivered with 2 mg/mL 10-8-10 Dimer for five minutes; wherein (A) is a fluorescence image at 60× magnification and (B) is at 60× magnification with fluorescence and greyscale overlay. FIGS. 32A and B are 60× fluorescence microscopy images of ex-vivo healthy swine arterial tissue cross-sections treated with 2 mg/mL 10-8-10 Dimer for five minutes; wherein (A) is a fluorescence image and (B) is a fluorescence and greyscale overlay.

[2] = tested on: ex-vivo healthy swine esophageal tissue; assay: Fluorescence microscopy of ex-vivo esophageal tissue cross-section after delivery of 10-8-10 Dimer; type: in vitro ADME
Protocol: FIGS. 34A and B are fluorescence microscopy images of ex-vivo healthy swine esophageal tissue cross-section delivered with 4 mg/mL 10-8-10 Dimer for five minutes; wherein (A) is a fluorescence image at 4× magnification, and (B) is at 4× magnification with the fluorescence and greyscale overlay). FIGS. 34A and B are 4× fluorescence microscopy images of ex-vivo healthy swine esophageal tissue cross-section treated with 4 mg/mL 10-8-10 Dimer for five minutes; wherein (A) is a fluorescence image, and (B) is the fluorescence and greyscale overlay. As shown therein, The penetration of 10-8-10 Dimer into ex-vivo esophageal tissue is also vastly different from arterial tissue penetration. […] Treatment with 2 mg/ml of 10-8-10 Dimer was ineffective. In contrast to the treatment of arterial tissue, the 10-8-10 Dimer was efficacious at a concentration 100% greater.

[3] = tested on: esophageal strictures generated by endoscopic mucosal resection (EMR); assay: Esophageal stricture (endoscopic mucosal resection) formation and treatment with compound I(a) plus PTA with light in minipigs; type: in vivo, Yucatan minipigs
Source text: Five healthy Yucatan minipigs (20-28 kg) were enrolled in the study. For the EMR procedure, each animal was monitored and maintained under anesthesia throughout the duration of the procedure. Each animal was placed in a supine position and elevated to a 5-12 degrees reverse Trendelenburg position, to aid in keeping gastric fluids from coming into the EMR procedural area. A water base lubricant (Astroglide) was used to aid at every insertion of the endoscope.
The upper GI was intubated and surveyed for abnormalities and gastric fluid content via a GIF-XQ140 endoscope. Of the five animals, three animals underwent lavage to remove excess fluid and debris from the esophagus and gastric lumen by washing with saline and suctioning out fluid/debris. A fluoroscopic esophagogram was taken of the target area with the endoscope in place (FIG. 1). The distal tip was measured with a calibrated digital caliper and the measurement was used to calibrate the fluoroscopic measurement tool. […] All representative fluoroscopic and endoscopic imagery are from animal 19P39 unless otherwise stated.
The scope tip was positioned within ±3 cm of the target site. Suction was applied through the gastroscope to visualize the esophageal mucosa at the distal attachment (DA) and to visualize the injection range to capture approximately three-fourths of the esophageal lumen at the target site. The needle from the disposable EMR kit was inserted through the endoscope biopsy channel and into the endoscope field of view (FIG. 2A). The injector slider was pushed until it clicked into position to extend the needle from the sheath. A 10 mL syringe with saline was connected to the injector port. Suction was applied and the injector needle advanced to pierce the target mucosa and to inject a bolus of saline (FIG. 2B). The target area was injected with 0.5 mL to 2.0 mL of saline multiple times to reach a coverage of approximately three-fourths circumference of the target area. Following injections suction was released, and the needle withdrawn from the biopsy channel for insertion of the snare.
The snare was used to remove the blistered mucosal tissue from the treated area. The snare was retracted and inserted into the biopsy channel and advanced into the field of view with the distal sheath. The snare was connected to the electrosurgical unit (Olympus PSD-20). The electrosurgical unit has two settings, one setting is CUT, which is used to cut the tissue and the other setting is COAG, which is used to cauterize the tissue. The snare loop tip was slowly extended approximately 5-10 mm beyond the DA, and CUT was activated marking the base of the tissue bolus by cauterizing the mucosa (FIG. 3A). Suction was used to draw the tissue bolus partially into the DA, and CUT was activated to separate the target mucosa from the submucosa/muscularis. The snare loop was also used as a lasso to remove the partially resected mucosa by cinching the snare closed around the resection (FIG. 3B) and activating the CUT pedal and COAG pedal as needed. The tissue that was not easily removed with the snare was removed with a coagrasper (FIG. 3C). The natural contraction movements of the esophagus posed some difficulty with maintaining a perfect depth to only exposing the submucosal tissue and to maintaining a consistent resection length throughout the resected area. For some animals there were portions of muscularis tissue exposed and some spiraling to the resected area due to the esophageal contractions (FIG. 4). Following the EMR a post procedural fluoroscopic esophagogram (FIG. 5) was taken and the animal recovered from anesthesia.
The EMR in the target area span approximately 270 degrees circumference and less than 2 cm wide.
On Day 21, post stricture induction, animals underwent anesthesia for evaluation of stricture formation and for stricture treatment. No lavage was needed to the esophagus or gastric lumen to complete the treatment on any of the animals. […]

[4] = tested on: esophageal tissue in a healthy swine in vivo esophagus; assay: Crosslink healthy in vivo esophagus at two power levels (delivery, soak, balloon dilatation, light activation); parameters: species or system Yorkshire Cross swine
Source text: More specifically, this study evaluated the logistics for esophageal placement of compound I(a) with the use of contrast media, the crosslinking effects of compound I(a), and acute retention of dilation in an in vivo swine model.
An Olympus GIF-140 Endoscope was used in this study. Fluoroscopy was utilized throughout the procedures for confirmation of equipment placement, sample delivery, and removal.
A 60-65 kg Yorkshire Cross (18P118) was used to establish the logistical techniques of the procedure. The animal was fasted for 24 hours prior to the procedure commencing. Post anesthesia swine 18P118 was positioned supinely (on its back) with the surgical table flat. A lavage was performed to flush any remaining contents from the esophagus and stomach. The endoscope was lubricated with a dime size amount of water based Astroglide and inserted into the mouth, passed by the epiglottis, around the pharyngeal diverticulum, through the esophagus and into the stomach. At insertion, the esophagus was partially open, (<5 mm diameter) circular and smooth. The esophagus formed around the catheter and the endoscope inserted instruments, ranging from 4 mm to 12.74 mm in diameter. The endoscope incremental measurements were used to determine the endoscope placement from the front incisor (zero reference point) to the lower esophageal sphincter (71 cm) with the designated working area being between 30 and 60 cm. The endoscope was maintained in the esophagus for the entire procedure.
Using the endoscope, the Edwards Fogarty occlusion catheter and the Vista Brite tip guide catheter were guided down the esophagus and positioned at the 45 cm mark. Positioning them simultaneously, then holding during inflation prevented slippage of the catheters during balloon inflation. The mucosa is loosely attached to the muscularis; the movement of any device in contact with the mucosa influenced the positioning of all inserted devices. […]
Once the volume required to fill the treatment zone was determined the contrast medium was removed. […]

[5] = 4 mg/mL for five minutes, 4x fluorescence microscopy
[6] = Study Day 21, fluoroscopic, PTA + compound I(a) w/light, one row per animal
[7] = Study Day 49 necropsy, cross-section of esophagus, compound I(a) + PTA w/ light, one row per animal

NCCOCCOCCNc1ccc2c3c(cccc13)C(=O)N(CCOCCOCCN1C(=O)c3cccc4c(NCCOCCOCCN)ccc(c34)C1=O)C2=O [compound I(a)]
penetration into arterial tissue (fluorescence) [1]: penetrated through the arterial intima and into the media
treatment of esophageal tissue at 2 mg/ml ([2]; 2 mg/ml): ineffective
fluorescence in the submucosa or muscularis [2, 5]: no significant fluorescence
location of 10-8-10 Dimer fluorescence in esophageal tissue [2, 5]: preponderance of 10-8-10 Dimer fluorescence is in the epithelium
treatment of esophageal tissue at higher concentration ([2]; concentration 100% greater than for arterial tissue (4 mg/mL vs 2 mg/mL)): efficacious
penetration at stricture site (yellow coloration of the esophagus) ([3]; 10 mg/ml in PBS, 10 minutes soak, Day 21): Yellow coloration of the esophagus was observed indicating penetration
abnormalities of the entire esophagus via endoscope imaging ([3]; Day 21 post treatment, compound I(a) plus PTA balloon with light animals, other than the stricture area): no abnormalities were seen
re-epithelialization (pathology report) ([3]; Day 49 microscopic evaluation, compound I(a) plus PTA balloon with light): complete
Diameter of Stricture (mm) 0 min. post TX ([3]; Study Day 21, fluoroscopic, PTA + compound I(a) (10 mg/ml in PBS, 10 min soak) w/light 74 mW/cm2, one row per animal): 15.88 mm and 13.0 mm and 12.4 mm
Diameter of Stricture (mm) 30 min. post TX [3, 6]: 17.13 mm and 7.5 mm and 14.8 mm
Diameter of Stricture (mm) 60 min. post TX [3, 6]: 13.8 mm and 8.5 mm and 10.9 mm
Length of Stricture (mm) Endoscopic scan post TX ([3]; Study Day 21, post treatment, PTA + compound I(a) w/light, one row per animal): 30 mm (2×) and 17 mm
Length of Stricture (mm) Fluoroscopic ([3]; Study Day 49 (four weeks post treatment), compound I(a) + PTA w/light, one row per animal): 12.6 mm (2×) and 12.8 mm
Stricture Length [3, 7]: 3-11 millimeters and 5 millimeters and 25 millimeters
Stricture Width [3, 7]: 12 millimeters and 10 millimeters and 7 millimeters
Diameter of Stricture Post TX ([3]; Table 3, Study Day 49 (four weeks post treatment), fluoroscopic, compound I(a) + PTA w/light, one row per animal): 4.9 mm and 6.0 mm and 7.4 mm
Diameter of Stricture Post TX ([3]; Table 10, post treatment, 29 days apart, compound I(a) + PTA w/light, one row per animal, in mm): 6.0 and 7.4 and 4.9
percent gain at the stricture site post-treatment ([3]; all compound I(a) plus PTA balloon with light treated animals, Table 10): increase in percent gain
% Stricture Diameter Change Before and Post Treatment ([3]; before and post treatment 29 days apart, compound I(a) + PTA w/light, one row per animal): 22.4% and 94.7% and 169%
restoring the esophagus to a healthier diameter and movement ([3]; compound I(a) plus PTA balloon with light, in comparison with PTA balloon only treatment (19P38)): better success
retention of dilation ([3]; four weeks after treatment with compound I(a) crosslinking): demonstrated retention of dilation
crosslinking of the esophageal tissue (esophagus open at treated sites) ([4]; 10 mg/mL, 10 min soak, balloon dilatation, laser 74 mW/cm2 (site A) or 32 mW/cm2 (sites B, C) for 2 minutes): indications of potential crosslinking were seen at multiple sites; also recorded: opening at sites A, B and C indicate a crosslinking of the esophageal tissue
penetration of esophageal tissue (yellow coloration of the tissue) ([4]; 8 mL of compound I(a) 10 mg/mL in PBS, 10 minutes soak, treatment sites A, B, C, endoscopic observation): penetration was observed; also recorded: yellow coloration of the tissue is indicative of compound I(a) penetration; also recorded: yellow coloration of the esophagus confirmed delivery
irritation of the esophagus on endoscopy or necropsy examination ([4]; post treatment, entire length of the esophagus, slight irritation at site C attributed to TAPAS catheter): No significant irritation

Reference: patent US12295949B2, “Treatment of the gastrointestinal tract with dimeric naphthalimide compounds” (Alumend, LLC, priority 2022, dated 2025)
